DBAASP
≈ marks a conversion by molar mass, not a printed value.

Assays:
Experiment in all cases: ≥ marks a high value that may be exact or a test limit, other limits are often not marked, values filed in µg/mL are converted to µM
[1] = tested on: Staphylococcus aureus AS1.72
[2] = tested on: Pseudomonas aeruginosa CGMCC 1.860
Bacillus cereus AS1.126 = tested on: Bacillus cereus AS1.126
[3] = tested on: Klebsiella pneumoniae subsp. pneumoniae CGMCC 1.176
[4] = tested on: Staphylococcus epidermidis CICC 23664
[5] = tested on: Enterococcus faecium CGMCC 1.2334
[6] = tested on: Enterococcus faecalis CGMCC 1.595
Escherichia coli AS1.349 = tested on: Escherichia coli AS1.349
[7] = tested on: Proteus mirabilis CICC 22931
[8] = tested on: Enterobacter cloacae CGMCC 1.58
[9] = tested on: Klebsiella pneumoniae ATCC 700603
[10] = tested on: Staphylococcus aureus ATCC 29213
[11] = tested on: Staphylococcus aureus ATCC 33591
[12] = tested on: Staphylococcus aureus ATCC 700699
[13] = tested on: Pseudomonas aeruginosa ATCC 27853
[14] = tested on: Escherichia coli ATCC 25922
[15] = tested on: Staphylococcus aureus ATCC 15752
[16] = tested on: Micrococcus luteus ATCC 10240
[17] = tested on: Escherichia coli KCTC 2223
Staphylococcus aureus = tested on: Staphylococcus aureus
Escherichia coli W160-37 = tested on: Escherichia coli W160-37
[18] = tested on: Pseudomonas syringae pv. tomato DC3000
[19] = tested on: Pseudomonas syringae pv. syringae DSM 10604
[20] = tested on: Clavibacter michiganensis subsp. michiganensis DSM 46294
[21] = tested on: Pseudomonas corrugata DSM 7228
[22] = tested on: Pectobacterium carotovorum subsp. carotovorum DSM 30168
[23] = tested on: Staphylococcus aureus 90857
[24] = tested on: Xanthomonas vesicatoria DSM 50861
[25] = tested on: Pseudomonas aeruginosa PAO1
[26] = tested on: Zymomonas mobilis ATCC 10988
Candida parapsilosis = tested on: Candida parapsilosis
[27] = tested on: Escherichia coli DH5alpha
Bacillus subtilis DELTA = tested on: Bacillus subtilis DELTA
[28] = tested on: Staphylococcus aureus ATCC 9144
[29] = tested on: Corynebacterium glutamicum ATCC 13032
Escherichia coli HB101 = tested on: Escherichia coli HB101

SMILES: CC[C@H](C)[C@H](N)C(=O)N[C@@H](CCCCN)C(=O)N[C@@H](CCCCN)C(=O)N[C@H](C(=O)N[C@@H](Cc1c[nH]c2ccccc12)C(=O)N[C@@H](CO)C(=O)N[C@@H](CCCCN)C(=O)N[C@H](C(=O)N[C@@H](CCCCN)C(=O)N[C@@H](CCCCN)C(=O)N[C@@H](Cc1c[nH]c2ccccc12)C(=O)N[C@@H](Cc1c[nH]c2ccccc12)C(=O)N[C@@H](CCCCN)C(=O)O)[C@@H](C)CC)[C@@H](C)CC [IKKIWSKIKKWWK]
- MIC [1]: 2.5 µM (≈ 4.43 µg/mL)
- MIC [2]: 4.69 µM (≈ 8.31 µg/mL)
- MIC (Bacillus cereus AS1.126): 6.25 µM (≈ 11.1 µg/mL)
- MIC [3]: ≥ 100 µM
- MIC [4]: 2.5 µM (≈ 4.43 µg/mL)
- MIC [5]: 12.5 µM (≈ 22.2 µg/mL)
- MIC [6]: 5 µM (≈ 8.86 µg/mL)
- MIC (Escherichia coli AS1.349): 2.5 µM (≈ 4.43 µg/mL)
- MIC [7]: ≥ 100 µM
- MIC [8]: ≥ 100 µM

SMILES: CC[C@H](C)[C@H](NC(=O)[C@H](CC(=O)O)NC(=O)[C@H](CCCCN)NC(=O)[C@H](C)NC(=O)[C@H](C)NC(=O)CNC(=O)[C@H](CCCCN)NC(=O)[C@H](CC(C)C)NC(=O)[C@@H](NC(=O)[C@H](CC(=O)O)NC(=O)[C@@H](NC(=O)[C@@H](NC(=O)CN)C(C)C)C(C)C)[C@@H](C)CC)C(=O)N[C@@H](C)C(=O)NCC(=O)N[C@@H](Cc1cnc[nH]1)C(=O)N[C@@H](CC(C)C)C(=O)N[C@@H](C)C(=O)N[C@@H](CO)C(=O)N[C@@H](C)C(=O)N[C@H](C(=O)N[C@@H](CCSC)C(=O)N[C@@H](CC(N)=O)C(=O)N[C@@H](CCCCN)C(=O)N[C@@H](CC(C)C)C(N)=O)C(C)C [GVVDILKGAAKDIAGHLASAVMNKL]
- MIC [9]: > 100 µM
- MIC [10]: > 100 µM
- MIC [11]: ≥ 100 µM
- MIC [12]: ≥ 100 µM
- MIC [13]: > 100 µM
- MIC [14]: 100 µM (≈ 249 µg/mL)

SMILES: CC[C@H](C)[C@H](NC(=O)[C@H](CCCCN)NC(=O)[C@@H](NC(=O)[C@@H](N)CC(N)=O)[C@@H](C)CC)C(=O)N[C@@H](CO)C(=O)NCC(=O)N[C@@H](CCCCN)C(=O)N[C@@H](Cc1c[nH]c2ccccc12)C(=O)N[C@@H](CCCCN)C(=O)N[C@@H](C)C(=O)N[C@@H](CCC(N)=O)C(=O)N[C@@H](CCCCN)C(=O)N[C@@H](CCCN=C(N)N)C(=O)N[C@@H](Cc1ccccc1)C(=O)N[C@@H](CC(C)C)C(=O)N[C@@H](CCCCN)C(=O)O [NIKISGKWKAQKRFLK]
- MIC [15]: ≥ 32 µM
- MIC [16]: ≥ 32 µM
- MIC [17]: ≥ 32 µM

SMILES: CC[C@H](C)[C@H](NC(=O)[C@H](Cc1c[nH]c2ccccc12)NC(=O)[C@H](CCCCN)NC(=O)[C@H](CO)NC(=O)[C@H](CC(C)C)NC(=O)[C@H](Cc1ccccc1)NC(=O)[C@H](CCCCN)NC(=O)[C@H](CC(C)C)NC(=O)[C@H](CCCCN)NC(=O)[C@@H]1CCCN1)C(=O)NCC(=O)O [PKLKFLSKWIG]
- MIC (Staphylococcus aureus): 154 µM (≈ 203 µg/mL)
- MIC (Escherichia coli W160-37): ≥ 154 µM

SMILES: CC(C)C[C@H](NC(=O)[C@H](CCCCN)NC(=O)[C@H](CCCCN)NC(=O)[C@H](CCCCN)NC(=O)[C@@H](N)CCCN=C(N)N)C(=O)N[C@@H](CCCCN)C(=O)N[C@H](C(=O)N[C@H](C(=O)N[C@@H](CCCCN)C(=O)N[C@@H](CCCN=C(N)N)C(=O)N[C@@H](CC(C)C)C(=O)N[C@H](C(N)=O)C(C)C)C(C)C)C(C)C [RKKKLKVVKRLV]
- MIC [18]: 0.669 µM (≈ 0.999 µg/mL)
- MIC [19]: 3.34 µM (≈ 5 µg/mL)
- MIC [20]: 6.69 µM (≈ 9.99 µg/mL)
- MIC [21]: 6.69 µM (≈ 9.99 µg/mL)
- MIC [22]: 6.69 µM (≈ 9.99 µg/mL)
- MIC [23]: ≥ 62.5 µM
- MIC [24]: 6.69 µM (≈ 9.99 µg/mL)

SMILES: CC[C@H](C)[C@H](NC(=O)[C@H](CCCCN)NC(=O)[C@H](CCCCN)NC(=O)[C@H](CC(C)C)NC(=O)CN)C(=O)N[C@H](C(=O)N[C@@H](CCCCN)C(=O)N[C@@H](CCCCN)C(=O)N[C@@H](CC(C)C)C(=O)N[C@@H](CC(C)C)C(N)=O)[C@@H](C)CC [GLKKIIKKLL]
- MIC [25]: 13 µM (≈ 15 µg/mL)
- MIC [26]: 17.3 µM (≈ 20 µg/mL)
- MIC (Candida parapsilosis): 17.3 µM (≈ 20 µg/mL)
- MIC [27]: ≥ 173 µM
- MIC (Bacillus subtilis DELTA): 13 µM (≈ 15 µg/mL)

SMILES: CC[C@H](C)[C@H](NC(=O)[C@H](CC(C)C)NC(=O)[C@H](CCCCN)NC(=O)[C@H](CCCCN)NC(=O)[C@H](CC(C)C)NC(=O)[C@@H](NC(=O)[C@H](CCCCN)NC(=O)[C@H](CCCCN)NC(=O)[C@@H](NC(=O)[C@H](Cc1ccccc1)NC(=O)[C@H](CCCN=C(N)N)NC(=O)[C@@H](N)CC(C)C)[C@@H](C)CC)[C@@H](C)CC)C(N)=O [LRFIKKILKKLI]
- MIC [18]: 0.661 µM (≈ 0.999 µg/mL)
- MIC [19]: 0.165 µM (≈ 0.25 µg/mL)
- MIC [20]: 0.165 µM (≈ 0.25 µg/mL)
- MIC [21]: 1.65 µM (≈ 2.5 µg/mL)
- MIC [22]: 1.65 µM (≈ 2.5 µg/mL)
- MIC [23]: 0.625 µM (≈ 0.945 µg/mL)
- MIC [24]: 0.0661 µM (≈ 0.0999 µg/mL)

SMILES: CC[C@H](C)[C@H](NC(=O)[C@@H]1CCCN1C(=O)[C@H](CCCCN)NC(=O)[C@@H]1CCCN1C(=O)[C@H](CCCN=C(N)N)NC(=O)CNC(=O)[C@@H]1CCCN1C(=O)[C@H](Cc1ccccc1)NC(=O)[C@@H]1CCCN1C(=O)[C@H](CCCN=C(N)N)NC(=O)[C@@H]1CCCN1C(=O)[C@H](CCCN=C(N)N)NC(=O)CN)C(=O)N[C@@H](Cc1ccccc1)C(=O)N[C@@H](CCCN=C(N)N)C(=O)N1CCC[C@H]1C(=O)N[C@@H](CCCN=C(N)N)C(=O)O [GRPRPFPGRPKPIFRPR]
- MIC [28]: ≥ 100 µM
- MIC [29]: 3.1 µM (≈ 6.3 µg/mL)
- MIC (Escherichia coli HB101): 25 µM (≈ 50.8 µg/mL)
- MIC [13]: 70.7 µM (≈ 144 µg/mL)
- MIC [14]: 70.7 µM (≈ 144 µg/mL)

SMILES: CC[C@H](C)[C@H](NC(=O)[C@H](CC(=O)O)NC(=O)[C@H](CCCCN)NC(=O)[C@H](C)NC(=O)[C@H](C)NC(=O)CNC(=O)[C@H](C)NC(=O)[C@H](CC(C)C)NC(=O)[C@@H](NC(=O)[C@H](CC(=O)O)NC(=O)[C@@H](NC(=O)[C@@H](NC(=O)CN)C(C)C)C(C)C)[C@@H](C)CC)C(=O)N[C@@H](C)C(=O)NCC(=O)N[C@@H](Cc1cnc[nH]1)C(=O)N[C@@H](CC(C)C)C(=O)N[C@@H](C)C(=O)N[C@@H](CO)C(=O)N[C@@H](CCCCN)C(=O)N[C@H](C(=O)N[C@@H](CCSC)C(=O)N[C@@H](CC(N)=O)C(=O)N[C@@H](CCCCN)C(=O)N[C@@H](CC(C)C)C(N)=O)C(C)C [GVVDILAGAAKDIAGHLASKVMNKL]
- MIC [9]: > 100 µM
- MIC [10]: > 100 µM
- MIC [11]: ≥ 100 µM
- MIC [12]: ≥ 100 µM
- MIC [13]: > 100 µM
- MIC [14]: > 100 µM

SMILES: CC[C@H](C)[C@H](NC(=O)[C@@H]1CCCN1C(=O)[C@H](CCCCN)NC(=O)[C@@H]1CCCN1C(=O)[C@H](CCCN=C(N)N)NC(=O)CNC(=O)[C@@H]1CCCN1C(=O)[C@H](Cc1ccccc1)NC(=O)[C@@H]1CCCN1C(=O)[C@H](CCCN=C(N)N)NC(=O)[C@@H]1CCCN1)C(=O)N[C@@H](Cc1ccccc1)C(=O)N[C@@H](CCCN=C(N)N)C(=O)N1CCC[C@H]1C(=O)N[C@@H](CCCN=C(N)N)C(=O)O [PRPFPGRPKPIFRPR]
- MIC [28]: ≥ 100 µM
- MIC [29]: 12.5 µM (≈ 22.7 µg/mL)
- MIC (Escherichia coli HB101): ≥ 100 µM
- MIC [13]: > 100 µM
- MIC [14]: > 100 µM
